Patent US5952307A, “Basic α-aminoalkylphosphonate derivatives” (priority 1997, dated 1999)

Assays:
Assay type in all cases: biochemical
bovine trypsin = molecular target: T1, bovine trypsin (Bos taurus, UniProt P00760); test: Inactivation rate of bovine trypsin, incubation method; settings: for kobs /[I] bovine trypsin: 0.13 μM trypsin, 0.25-42 μM inhibitor, 80 mM Hepes pH 7.5, 1 mM CaCl2, 8% DMSO, 25° C., NI = no inhibition; for kobsd /[I] bovine trypsin: Table I, 0.1M Hepes, 0.01M CaCl2 pH 7.5, 25° C., 2% DMSO, substrate Z--Arg--SBzl, NI = no inhibition after 25 min
T1 sequence (P00760 24-246): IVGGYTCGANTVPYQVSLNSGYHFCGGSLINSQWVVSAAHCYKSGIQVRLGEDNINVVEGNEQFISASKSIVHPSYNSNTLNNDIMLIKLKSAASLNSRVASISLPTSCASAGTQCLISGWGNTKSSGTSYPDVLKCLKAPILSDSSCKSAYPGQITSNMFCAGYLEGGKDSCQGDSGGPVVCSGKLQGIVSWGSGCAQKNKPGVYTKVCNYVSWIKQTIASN
Protocol: (§1) Inactivation rates of serine proteases by aryl diesters of peptidyl derivatives of α-aminoalkylphosphonates were measured by the incubation method. An aliquot of inhibitor (25 or 50 μl) in Me2 SO was added to a buffered enzyme solution (0.01-2.3 μM) to initiate the inactivation. Aliquots (50 μl) were withdrawn at various intervals and the residual enzymatic activity was measured. Me2 SO concentration in the reaction mixture was 8-12% (v/v). A 0.1 M HEPES, 0.01 M CaCl2, pH 7.5 buffer was utilized for trypsin and trypsin-like enzymes. A 0.1 M HEPES, 0.5 M NaCl, pH 7.5, was utilized for the other serine proteases. Peptide thioesters or peptide nitroanilides with the appropriate sequences were used as substrates for various serine proteases. All peptide thioesters hydrolysis rates were measured with the assay mixture containing 4,4'-dithiodipyridine {ε324 =19800 M^-1 cm^-1; Grasetti & Murray, Arch. Biochem. Biophys. 1967, 119, 41-48}. Peptide 4-nitroanilide hydrolysis was measured at 410 nm {ε410 =8800 M^-1 cm^-1; Erlanger et al., Arch. Biochem. Biophys. 1961, 95, 271-278}. First order inactivation rate constants (Kobs) were obtained from plots of In vt /vo vs time, and the correlation coefficients were greater then 0.98.
(§2) ^a Inhibition constants were measured in 0.1M Hepes, 0.01M CaCl2
(§3) pH 7.5 for trypsin, granzymes A, and K, and in 0.1M Hepes, 10% glycerol,
(§4) 10 mM heparin, pH 7.5 for mast cell tryptase, and at 25° C. The
(§5) reaction mixtures contained 2% DMSO for trypsin, 7.6% for granzyme A, and
(§6) 7.1% for granzyme K and tryptase. The substrate was Z--Arg--SBzl for
(§7) granzymes and trypsin, and Z--Arg--SBzl or Z--Lys--SBzl for tryptase in
(§8) the presence of DTNB. The inhibitor # concentration ranged from 0.001 to
(§9) ^b NI, no inhibition after 25 min of incubation with enzyme.
(§10) ^a Enzyme was incubated with the inhibitor in 250 μL of the proper
(§11) buffer at 25° C. Specifically, the inhibition reation mixtures wer
composed of: 0.13 μM trypsin, 0.25-42 μM inhibitor in an 80 mM
(§12) Hepes, pH 7.5 buffer containing 1 mM CaCl2 and 8% DMSO; 0.07 μM
(§13) DMSO. Aliquots of 25 μL were withdrawn at various intervals and the
(§14) residual enzymatic activity was measured as described in experimental
(§15) section. The kobs values were calculated from pseudofirst-order
(§16) ^a Enzyme (0.06-0.5 μM) was incubated with the inhibitor (0.25-42
(§17) μM) in 250 μL of the proper buffer containing 9% DMSO at 25°
(§18) C. The final inhibition reaction mixtures are given in the footnote to
(§19) Table 1. Aliquots of 25 μL were withdrawn at various intervals and the […]

human thrombin = molecular target: T2, human thrombin (Homo sapiens, UniProt P00734); settings: Table II; for kobs /[I] human thrombin: 0.07 μM thrombin, 0.25-42 μM inhibitor, 80 mM Hepes pH 7.5, 428 mM NaCl, 8% DMSO, 25° C., NI = no inhibition; for % Inh human thrombin: printed in the kobs/[I] column
T2 construct: bovine trypsin, human thrombin
Protocol: as §1, with “271-278}.” for “271-278}. First order inactivation rate constants (Kobs) were obtained from plots of In vt /vo vs time, and the correlation coefficients were greater then 0.98.”
as §10, §11, §12
thrombin, 0.25-42 μM inhibitor in an 80 mM Hepes, pH 7.5 buffer
(§20) containing 428 mM NaCl and 8% DMSO; 0.07 μM tryptase, 20-66 μM
as §13, §14, §15, §16, §17, §18, §19

human granzyme A = molecular target: T3, human granzyme A (Homo sapiens, UniProt P12544); test: Inactivation rate of human granzyme A, incubation method; settings: Table I; 0.1M Hepes, 0.01M CaCl2 pH 7.5, 25° C., 7.6% DMSO, substrate Z--Arg--SBzl
T3 sequence (P12544 29-262): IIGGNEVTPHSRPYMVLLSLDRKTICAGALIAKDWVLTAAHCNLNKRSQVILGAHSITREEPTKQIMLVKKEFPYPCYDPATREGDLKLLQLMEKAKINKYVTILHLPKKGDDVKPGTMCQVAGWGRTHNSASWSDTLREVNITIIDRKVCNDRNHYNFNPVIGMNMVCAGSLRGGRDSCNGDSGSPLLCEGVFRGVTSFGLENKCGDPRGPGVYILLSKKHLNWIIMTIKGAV
Protocol: as §1, §2, §3, §4, §5, §6, §7, §8, §9

mast cell tryptase = mast cell tryptase (Homo sapiens, UniProt Q15661); test: Inactivation rate of mast cell tryptase, incubation method; settings: for kobs /[I] mast cell tryptase: 0.07 μM tryptase, 20-66 μM inhibitor, Hepes pH 7.5, heparin, 9% glycerol, 8% DMSO, 25° C., NI = no inhibition
Protocol: as §1, §2, §3, §4, §5, §6, §7, §8, §9, §10, §20
inhibitor # in an mM Hepes, pH 7.5 buffer containing 8 mM heparin, 166 m
NaCl, 0.8 mM Mes, 9% glycerol and 8% DMSO; 0.42 μM factor Xa, 66 μM
as §13, §14, §15, §16, §17, §18, §19

[1] = Table II, printed in the kobs/[I] column

Chain of mast cell tryptase (Q15661 31-275): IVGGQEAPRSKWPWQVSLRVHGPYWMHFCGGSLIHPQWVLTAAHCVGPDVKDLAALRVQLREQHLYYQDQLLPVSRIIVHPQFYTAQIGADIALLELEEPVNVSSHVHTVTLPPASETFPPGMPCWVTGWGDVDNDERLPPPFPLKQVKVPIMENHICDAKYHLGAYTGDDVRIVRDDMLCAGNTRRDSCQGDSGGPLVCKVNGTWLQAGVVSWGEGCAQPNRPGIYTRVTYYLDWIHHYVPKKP

SMILES | kobs /[I] bovine trypsin (bovine trypsin; Table II) | kobs /[I] human thrombin (human thrombin) | also measured
CC(C)CC(N)C(=O)NC(C(=O)NC(c1ccc(C(=N)N)cc1)P(=O)(Oc1ccccc1)Oc1ccccc1)C(C)O (mixture of isomers) [Leu--Thr-(4-AmPhGly)^P (OPh)2] | 24.5 ± 0.0 M⁻¹ s⁻¹ | 58 ± 3 M⁻¹ s⁻¹ | –
CC(C)CC(NC(=O)OCc1ccccc1)C(=O)NC(c1ccc(C(=N)N)cc1)P(=O)(Oc1ccccc1)Oc1ccccc1 (mixture of isomers) [Cbz--Leu-(4-AmPhGly)^P (OPh)2] | 1.3 ± 0.1 M⁻¹ s⁻¹ | – | kobsd /[I] bovine trypsin (bovine trypsin): 50 ± 1 M⁻¹ s⁻¹; kobsd /[I] human granzyme A (human granzyme A): 6.3 ± 0.7 M⁻¹ s⁻¹; kobsd /[I] mast cell tryptase (mast cell tryptase; Table I, 0.1M Hepes, 10% glycerol, 10 mM heparin, pH 7.5, 25° C., 7.1% DMSO, NI = no inhibition after 25 min of incubation): 0.3 M⁻¹ s⁻¹; kobs /[I] mast cell tryptase (mast cell tryptase; Table II): 0.3 M⁻¹ s⁻¹; % Inh human thrombin (human thrombin): 19%
Cl.N=C(N)c1cccc(C(NC(=O)OCc2ccccc2)P(=O)(Oc2ccccc2)Oc2ccccc2)c1 (stereo not drawn) [Cbz-(3-AmPhGly)^P (OPh)2, Diphenyl N-Benzyloxycarbonylamino-(3-amidinophenyl)methanephosphonate Hydrochloride] | – | – | % Inh human thrombin (human thrombin): 50%
Cl.N=C(N)c1ccc(C(NC(=O)OCc2ccccc2)P(=O)(Oc2ccccc2)Oc2ccccc2)cc1 (stereo not drawn) [Cbz-(4-AmPhGly)^P (OPh)2, Diphenyl N-benzyloxycarbonylamino(4-amidinophenyl)methanephosphonate hydrochloride] | 170 M⁻¹ s⁻¹ | 80 M⁻¹ s⁻¹ | kobsd /[I] bovine trypsin (bovine trypsin): 2000 M⁻¹ s⁻¹
Cl.N=C(N)c1ccc(C(NC(=O)[C@@H]2CCCN2C(=O)c2cccc(Oc3ccccc3)c2)P(=O)(Oc2ccccc2)Oc2ccccc2)cc1 (stereo partly drawn) [Diphenyl N-(N-(3-Phenoxybenzoylprolyl))amino(4-amidinophenyl)methanephosphonate Hydrochloride] | 4,080 ± 32 M^-1 s^-1 | 1,340 ± 225 M^-1 s^-1 | kobsd /[I] bovine trypsin (bovine trypsin): 4080 ± 32 M⁻¹ s⁻¹; kobsd /[I] human granzyme A (human granzyme A): 330 ± 58 M⁻¹ s⁻¹; % Inh mast cell tryptase (mast cell tryptase; Table I, printed in the kobsd/[I] column): 7%; % Inh mast cell tryptase (mast cell tryptase; [1]): 7%
CC(C)CC(NC(=O)OC(C)(C)C)C(=O)NC(CO)C(=O)NC(c1ccc(C(=N)N)cc1)P(=O)(Oc1ccccc1)Oc1ccccc1 (mixture of isomers) [Boc--Leu--Ser-(4-AmPhGly)^P (OPh)2] | 177 ± 2 M⁻¹ s⁻¹ | 97 ± 2 M⁻¹ s⁻¹ | –
Cl.N=C(N)c1ccc(C(NC(=O)OCc2ccccc2)P(=O)(O)Oc2ccccc2)cc1 (stereo not drawn) [Cbz-(4-AmPhGly)^P (OPh)(OH), Phenyl Hydrogen N-Benzyloxycarbonylamino-(4-amidinophenyl)methanephosphonate Hydrochloride] | 0.3 M⁻¹ s⁻¹ | – | –
N=C(N)c1ccc(C(NC(=O)C(Cc2c[nH]c3ccccc23)NC(=O)OCc2ccccc2)P(=O)(Oc2ccccc2)Oc2ccccc2)cc1 (mixture of isomers) [Cbz--Trp-(4-AmPhGly)^P (OPh)2] | 0.6 M⁻¹ s⁻¹ | 1.2 ± 0.0 M⁻¹ s⁻¹ | –
CC(C)CC(NC(=O)OC(C)(C)C)C(=O)NC(C(=O)NC(c1ccc(C(=N)N)cc1)P(=O)(Oc1ccccc1)Oc1ccccc1)C(C)O (mixture of isomers) [Boc--Leu--Thr-(4-AmPhGly)^P (OPh)2] | 35 ± 6 M⁻¹ s⁻¹ | 75 ± 1 M⁻¹ s⁻¹ | –
N=C(N)c1ccc(C(NC(=O)CNC(=O)OCc2ccccc2)P(=O)(Oc2ccccc2)Oc2ccccc2)cc1 (stereo not drawn) [Cbz--Gly-(4-AmPhGly)^P (OPh)2] | 195 ± 9 M⁻¹ s⁻¹ | 24 ± 3 M⁻¹ s⁻¹ | –
CC(C)C(NC(=O)OC(C)(C)C)C(=O)NC(C(=O)NC(c1ccc(C(=N)N)cc1)P(=O)(Oc1ccccc1)Oc1ccccc1)C(C)C (mixture of isomers) [Boc--Val--Val-(4-AmPhGly)^P (OPh)2] | 61 ± 5 M⁻¹ s⁻¹ | 85 ± 5 M⁻¹ s⁻¹ | –
CC(C)C(NC(=O)C(Cc1ccccc1)NC(=O)OC(C)(C)C)C(=O)NC(c1ccc(C(=N)N)cc1)P(=O)(Oc1ccccc1)Oc1ccccc1 (mixture of isomers) [Boc--D--Phe--Val-(4-AmPhGly)^P (OPh)2] | 30 ± 2 M⁻¹ s⁻¹ | 63 ± 4 M⁻¹ s⁻¹ | –
COP(=O)(Oc1ccccc1)C(NC(=O)OCc1ccccc1)c1ccc(C(=N)N)cc1.Cl (stereo not drawn) [Cbz-(4-AmPhGly)^P (OPh)(OMe), Methyl Phenyl N-Benzyloxycarbonylamino-(4-amidinophenyl)methanephosphonate Hydrochloride] | 83 M⁻¹ s⁻¹ | 41 M⁻¹ s⁻¹ | –
Cl.N=C(N)c1ccc(C(NC(=O)OCc2ccccc2)P(=O)(Oc2ccc(Cl)cc2)Oc2ccc(Cl)cc2)cc1 (stereo not drawn) [Cbz-(4-AmPhGly)^P (OPh-p-Cl)2, Di-p-chlorophenyl N-Benzyloxycarbonylamino-(4-amidinophenyl)methanephosphonate Hydrochloride] | 41,100 ± 5400 M^-1 s^-1 | 9,300 ± 210 M^-1 s^-1 | kobs /[I] mast cell tryptase (mast cell tryptase; Table II): 3 ± 0 M⁻¹ s⁻¹
N=C(N)c1ccc(C(NC(=O)CCCc2ccccc2)P(=O)(Oc2ccccc2)Oc2ccccc2)cc1 (stereo not drawn) [4-Phenylbutanoyl-(4-AmPhGly)^P (OPh)2] | – | 17 ± 1 M⁻¹ s⁻¹ | % Inh bovine trypsin (bovine trypsin; [1]): 15%
CC(C)CC(NC(=O)C(CC(N)=O)NC(=O)OC(C)(C)C)C(=O)NC(C(=O)NC(c1ccc(C(=N)N)cc1)P(=O)(Oc1ccccc1)Oc1ccccc1)C(C)O (mixture of isomers) [Boc--Asn--Leu--Thr-(4-AmPhGly)^P (OPh)2] | 18 ± 2 M⁻¹ s⁻¹ | 46 ± 6 M⁻¹ s⁻¹ | –
Cc1ccc(S(=O)(=O)NC(c2ccc(C(=N)N)cc2)P(=O)(Oc2ccccc2)Oc2ccccc2)cc1 (racemic) [Tolyl-SO2-(4-AmPhGly)^P (OPh)2] | 35 ± 6 M⁻¹ s⁻¹ | 94 ± 26 M⁻¹ s⁻¹ | –
